Test results from PMC5266331, “Novel PARP-1 Inhibitor Scaffolds Disclosed by a Dynamic Structure-Based Pharmacophore Approach” (PLoS ONE, 2017).

Target: T1, PARP-1 (Homo sapiens, UniProt P09874)
T1 construct: gene PARP1
Experiment: HT Universal Colorimetric PARP Assay kit (histone-coated wells, biotinylated poly(ADP-ribose))
Assay type: biochemical

T1 sequence (P09874 2-1014): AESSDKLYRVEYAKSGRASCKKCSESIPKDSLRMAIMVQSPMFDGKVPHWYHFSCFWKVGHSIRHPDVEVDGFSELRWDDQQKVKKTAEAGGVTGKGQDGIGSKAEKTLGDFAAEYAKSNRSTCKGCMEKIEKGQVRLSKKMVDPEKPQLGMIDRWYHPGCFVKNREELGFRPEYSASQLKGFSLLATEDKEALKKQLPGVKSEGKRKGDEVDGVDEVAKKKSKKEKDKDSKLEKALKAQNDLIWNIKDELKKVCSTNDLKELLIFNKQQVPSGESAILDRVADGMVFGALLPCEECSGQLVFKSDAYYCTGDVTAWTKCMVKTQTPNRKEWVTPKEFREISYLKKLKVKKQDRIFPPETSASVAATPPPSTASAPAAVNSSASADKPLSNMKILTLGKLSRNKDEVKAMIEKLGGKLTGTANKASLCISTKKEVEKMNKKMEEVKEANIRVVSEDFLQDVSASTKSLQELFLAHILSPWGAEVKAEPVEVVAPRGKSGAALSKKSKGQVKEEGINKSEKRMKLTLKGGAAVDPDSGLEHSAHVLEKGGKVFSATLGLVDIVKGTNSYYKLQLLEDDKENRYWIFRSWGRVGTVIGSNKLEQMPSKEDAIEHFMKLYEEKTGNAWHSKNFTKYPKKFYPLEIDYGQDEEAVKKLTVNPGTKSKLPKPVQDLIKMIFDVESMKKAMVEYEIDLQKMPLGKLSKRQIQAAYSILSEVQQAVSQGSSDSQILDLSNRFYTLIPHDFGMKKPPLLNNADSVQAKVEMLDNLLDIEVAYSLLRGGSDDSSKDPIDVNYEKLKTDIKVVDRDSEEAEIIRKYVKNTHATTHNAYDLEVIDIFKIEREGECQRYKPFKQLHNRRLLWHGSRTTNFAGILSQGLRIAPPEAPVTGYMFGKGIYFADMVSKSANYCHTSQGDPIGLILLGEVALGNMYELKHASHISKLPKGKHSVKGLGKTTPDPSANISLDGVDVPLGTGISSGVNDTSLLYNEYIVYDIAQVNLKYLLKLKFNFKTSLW

Compound: COc1ccc2c(c1O)CNCC2c1ccc(O)c(O)c1 (stereo not shown) [NSC131753]
- IC50: 240 nM
